Laboratory results taken from ChEMBL document CHEMBL1201862, “PubChem BioAssay data set” (2004).
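Briefly, cells in 96-well plates were exposed to five compound concentrations for 48 h, and endpoints were estimated by linear interpolation. GI50 marks 50% less growth.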 Calls of active or inactive are those of the source. No stated cut-off is given here; in the data, active = GI50 up to about 1.1 µM and inactive = higher.

Experiments:
Assay in all cases: NCI-60 cell line screen, 48 h
HCT-116 = tested on: HCT-116
SK-MEL-5 = tested on: SK-MEL-5
NCI-H460 = tested on: NCI-H460
NCI-H522 = tested on: NCI-H522
NCI/ADR-RES = tested on: NCI/ADR-RES
BT-549 = tested on: BT-549
CCRF-CEM = tested on: CCRF-CEM
T47D = tested on: T47D
SNB-75 = tested on: SNB-75
LOX IMVI = tested on: LOX IMVI
OVCAR-5 = tested on: OVCAR-5
SF-295 = tested on: SF-295
IGROV-1 = tested on: IGROV-1
NCI-H226 = tested on: NCI-H226
UACC-257 = tested on: UACC-257
UO-31 = tested on: UO-31
786-0 = tested on: 786-0
Malme-3M = tested on: Malme-3M
MDA-MB-231 = tested on: MDA-MB-231
SN12C = tested on: SN12C
Hs-578T = tested on: Hs-578T
MCF7 = tested on: MCF7
ACHN = tested on: ACHN
RXF 393 = tested on: RXF 393
SW-620 = tested on: SW-620
M14 = tested on: M14
HOP-92 = tested on: HOP-92
COLO 205 = tested on: COLO 205
A549 = tested on: A549
UACC-62 = tested on: UACC-62
NCI-H23 = tested on: NCI-H23
A498 = tested on: A498
SF-539 = tested on: SF-539
PC-3 = tested on: PC-3
KM12 = tested on: KM12
HT-29 = tested on: HT-29
MDA-MB-435 = tested on: MDA-MB-435
SR = tested on: SR
SNB-19 = tested on: SNB-19
SK-OV-3 = tested on: SK-OV-3
SF-268 = tested on: SF-268
SK-MEL-28 = tested on: SK-MEL-28
RPMI-8226 = tested on: RPMI-8226
HOP-62 = tested on: HOP-62
HL-60 = tested on: HL-60
K562 = tested on: K562
HCT-15 = tested on: HCT-15
TK-10 = tested on: TK-10
U-251 = tested on: U-251
OVCAR-8 = tested on: OVCAR-8
MOLT-4 = tested on: MOLT-4
CAKI-1 = tested on: CAKI-1
SK-MEL-2 = tested on: SK-MEL-2
EKVX = tested on: EKVX
MDA-N = tested on: MDA-N
OVCAR-4 = tested on: OVCAR-4
OVCAR-3 = tested on: OVCAR-3
DU-145 = tested on: DU-145
HCC 2998 = tested on: HCC 2998

NC1CC(=O)c2csc(Br)c21 (stereo not drawn)
GI50 (HCT-116): 11.2 µM (inactive) | GI50 (SK-MEL-5): 20.9 µM (inactive) | GI50 (NCI-H460): 20.3 µM (inactive) | GI50 (NCI-H522): 2.05 µM (inactive) | GI50 (NCI/ADR-RES): 20.1 µM (inactive) | GI50 (BT-549): 11.8 µM (inactive) | GI50 (CCRF-CEM): 4.15 µM (inactive) | GI50 (T47D): 24 µM (inactive) | GI50 (SNB-75): 23.1 µM (inactive) | GI50 (LOX IMVI): 15.6 µM (inactive) | GI50 (OVCAR-5): 14.4 µM (inactive) | GI50 (SF-295): 35.2 µM (inactive) | GI50 (IGROV-1): 7.76 µM (inactive) | GI50 (NCI-H226): 22.9 µM (inactive) | GI50 (UACC-257): 17.3 µM (inactive) | GI50 (UO-31): 16 µM (inactive) | GI50 (786-0): 12.9 µM (inactive) | GI50 (Malme-3M): 17.2 µM (inactive) | GI50 (MDA-MB-231): 23.9 µM (inactive) | GI50 (SN12C): 13.4 µM (inactive) | GI50 (Hs-578T): 17.4 µM (inactive) | GI50 (MCF7): 21.1 µM (inactive) | GI50 (ACHN): 16.4 µM (inactive) | GI50 (RXF 393): 17.2 µM (inactive) | GI50 (SW-620): 4.84 µM (inactive) | GI50 (M14): 19.5 µM (inactive) | GI50 (HOP-92): 9.89 µM (inactive) | GI50 (COLO 205): 16.5 µM (inactive) | GI50 (A549): 36.7 µM (inactive) | GI50 (UACC-62): 16.5 µM (inactive) | GI50 (NCI-H23): 17.1 µM (inactive) | GI50 (A498): > 36.5 µM (inactive) | GI50 (SF-539): 2.52 µM (inactive) | GI50 (PC-3): 14 µM (inactive) | GI50 (KM12): 12.2 µM (inactive) | GI50 (HT-29): 19.6 µM (inactive) | GI50 (MDA-MB-435): 12.9 µM (inactive) | GI50 (SR): 5.09 µM (inactive) | GI50 (SNB-19): 23.3 µM (inactive) | GI50 (SK-OV-3): > 64.6 µM (inactive) | GI50 (SF-268): 20 µM (inactive) | GI50 (SK-MEL-28): 18.5 µM (inactive) | GI50 (RPMI-8226): 4.82 µM (inactive) | GI50 (HOP-62): 24.4 µM (inactive) | GI50 (HL-60): 4.39 µM (inactive) | GI50 (K562): 5.97 µM (inactive) | GI50 (HCT-15): 7.71 µM | GI50 (TK-10): 12.9 µM (inactive) | GI50 (U-251): 18.1 µM (inactive) | GI50 (OVCAR-8): 16.6 µM (inactive) | GI50 (MOLT-4): 15.1 µM (inactive) | GI50 (CAKI-1): 10.9 µM (inactive) | GI50 (SK-MEL-2): 16 µM (inactive) | GI50 (EKVX): 15.1 µM (inactive) | GI50 (MDA-N): 13.6 µM (inactive) | GI50 (OVCAR-4): 16.5 µM (inactive) | GI50 (OVCAR-3): 15.3 µM (inactive) | GI50 (DU-145): 20.7 µM (inactive) | GI50 (HCC 2998): 18.5 µM (inactive)

CC1(C)CC[C@]2(C(=O)O)CC[C@]3(C)C(=CC[C@@H]4[C@@]5(C)C[C@H](O)[C@H](O)[C@@](C)(C(=O)O)[C@@H]5CC[C@]43C)[C@@H]2C1
GI50 (HCT-116): > 100 µM (inactive) | GI50 (SK-MEL-5): > 100 µM (inactive) | GI50 (NCI-H460): > 100 µM (inactive) | GI50 (NCI-H522): > 100 µM (inactive) | GI50 (NCI/ADR-RES): > 100 µM (inactive) | GI50 (BT-549): > 100 µM (inactive) | GI50 (CCRF-CEM): > 100 µM (inactive) | GI50 (T47D): > 100 µM (inactive) | GI50 (SNB-75): > 100 µM (inactive) | GI50 (LOX IMVI): > 100 µM (inactive) | GI50 (OVCAR-5): > 100 µM (inactive) | GI50 (SF-295): > 100 µM (inactive) | GI50 (IGROV-1): > 89.3 µM (inactive) | GI50 (NCI-H226): > 90.8 µM (inactive) | GI50 (UACC-257): > 100 µM (inactive) | GI50 (UO-31): > 100 µM (inactive) | GI50 (786-0): > 100 µM (inactive) | GI50 (Malme-3M): > 100 µM (inactive) | GI50 (MDA-MB-231): > 100 µM (inactive) | GI50 (SN12C): > 100 µM (inactive) | GI50 (Hs-578T): > 100 µM (inactive) | GI50 (MCF7): > 100 µM (inactive) | GI50 (ACHN): > 100 µM (inactive) | GI50 (RXF 393): > 100 µM (inactive) | GI50 (SW-620): > 100 µM (inactive) | GI50 (M14): > 100 µM (inactive) | GI50 (HOP-92): > 100 µM (inactive) | GI50 (COLO 205): > 100 µM (inactive) | GI50 (A549): > 100 µM (inactive) | GI50 (UACC-62): > 54.6 µM (inactive) | GI50 (NCI-H23): > 100 µM (inactive) | GI50 (A498): > 100 µM (inactive) | GI50 (SF-539): > 100 µM (inactive) | GI50 (PC-3): > 100 µM (inactive) | GI50 (KM12): > 79.1 µM (inactive) | GI50 (HT-29): > 100 µM (inactive) | GI50 (MDA-MB-435): > 100 µM (inactive) | GI50 (SR): > 100 µM (inactive) | GI50 (SNB-19): > 100 µM (inactive) | GI50 (SK-OV-3): > 100 µM (inactive) | GI50 (SF-268): > 100 µM (inactive) | GI50 (SK-MEL-28): > 100 µM (inactive) | GI50 (RPMI-8226): > 86.9 µM (inactive) | GI50 (HOP-62): > 100 µM (inactive) | GI50 (HL-60): > 31.6 µM (inactive) | GI50 (K562): 78.3 µM (inactive) | GI50 (HCT-15): > 100 µM | GI50 (TK-10): > 100 µM (inactive) | GI50 (U-251): > 100 µM (inactive) | GI50 (OVCAR-8): > 100 µM (inactive) | GI50 (MOLT-4): > 100 µM (inactive) | GI50 (CAKI-1): > 100 µM (inactive) | GI50 (SK-MEL-2): > 100 µM (inactive) | GI50 (EKVX): > 100 µM (inactive) | GI50 (MDA-N): > 100 µM (inactive) | GI50 (OVCAR-4): > 82.2 µM (inactive) | GI50 (OVCAR-3): > 100 µM (inactive) | GI50 (DU-145): > 100 µM (inactive) | GI50 (HCC 2998): > 100 µM (inactive)
